Data as given in ChEMBL document CHEMBL5724914, “Linking interpersonal differences in gut microbiota composition and drug biotransformation activity” (2024).

Assays:
[1] = (§1) The drug is tested on Z-025 corresponding to rabbit gut metagenome with ENA study accession number: PRJEB37062 and ENA sample accession number: ERS12561824 for biotransformation under anaerobic condition. The drug concentrations were measured over 9 timepoints collected between 0 and 24 hours of incubation by liquid-chromatography-coupled mass spectrometry (LC–MS); conditions: 2 µM
[2] = as §1, with “Z-022” for “Z-025”, “mouse” for “rabbit”, “ERS12561821” for “ERS12561824”; conditions: 2 µM
[3] = as §1, with “Z-016” for “Z-025”, “mouse” for “rabbit”, “ERS12561815” for “ERS12561824”; conditions: 2 µM
[4] = as §1, with “Z-008” for “Z-025”, “to” for “to rabbit gut”, “ERS12561808” for “ERS12561824”; conditions: 2 µM
[5] = as §1, with “Z-004” for “Z-025”, “to” for “to rabbit gut”, “ERS12561804” for “ERS12561824”; conditions: 2 µM
[6] = as §1, with “Z-003” for “Z-025”, “pig” for “rabbit”, “ERS12561803” for “ERS12561824”; conditions: 2 µM
[7] = as §1, with “WLS-350” for “Z-025”, “human” for “rabbit”, “ERS12561789” for “ERS12561824”; conditions: 2 µM
[8] = as §1, with “WLS-240” for “Z-025”, “human” for “rabbit”, “ERS12561773” for “ERS12561824”; conditions: 2 µM
[9] = as §1, with “WLS-077” for “Z-025”, “human” for “rabbit”, “ERS12561750” for “ERS12561824”; conditions: 2 µM
[10] = as §1, with “WLS-038” for “Z-025”, “human” for “rabbit”, “ERS12561745” for “ERS12561824”; conditions: 2 µM
[11] = human gut metagenome, 24 h, 2 µM
[12] = human gut metagenome, 24 h, 2 µM; remark: listed apart in the source
[13] = human gut metagenome, 24 h, 2 µM; remark: listed apart in the source
[14] = human gut metagenome, 24 h, 2 µM; remark: listed apart in the source
[15] = human gut metagenome, 24 h, 2 µM; remark: listed apart in the source
[16] = human gut metagenome, 24 h, 2 µM; remark: listed apart in the source
[17] = human gut metagenome, 24 h, 2 µM; remark: listed apart in the source
[18] = human gut metagenome, 24 h, 2 µM; remark: listed apart in the source
[19] = human gut metagenome, 24 h, 2 µM; remark: listed apart in the source
[20] = human gut metagenome, 24 h, 2 µM; remark: listed apart in the source
Also: call rule not given here.

Row | Structure (SMILES) | Bacterial Biotransformation [1] | Bacterial Biotransformation [2] | Bacterial Biotransformation [3] | Bacterial Biotransformation [4] | Bacterial Biotransformation [5] | Bacterial Biotransformation [6] | Bacterial Biotransformation [7] | Bacterial Biotransformation [8] | Bacterial Biotransformation [9] | Bacterial Biotransformation [10] | Bacterial Biotransformation [11] | Bacterial Biotransformation [12] | Bacterial Biotransformation [13] | Bacterial Biotransformation [14] | Bacterial Biotransformation [15] | Bacterial Biotransformation [16] | Bacterial Biotransformation [17] | Bacterial Biotransformation [18] | Bacterial Biotransformation [19] | Bacterial Biotransformation [20]
1 | CCN(CC)CCOC(=O)C1(C2CCCCC2)CCCCC1 [DICYCLOMINE] | Compound NOT metabolized | Compound metabolized | Compound NOT metabolized | Compound NOT metabolized | Compound NOT metabolized | Compound NOT metabolized | Compound NOT metabolized | Compound NOT metabolized | Compound NOT metabolized | Compound NOT metabolized | Compound NOT metabolized | Compound NOT metabolized | Compound metabolized | Compound metabolized | Compound metabolized | Compound metabolized | Compound metabolized | Compound metabolized | Compound NOT metabolized | Compound NOT metabolized
2 | COc1ccc([C@@H]2Sc3ccccc3N(CCN(C)C)C(=O)[C@@H]2OC(C)=O)cc1 [DILTIAZEM] | Compound NOT metabolized | Compound metabolized | Compound metabolized | Compound NOT metabolized | Compound metabolized | Compound metabolized | Compound metabolized | Compound metabolized | Compound NOT metabolized | Compound NOT metabolized | Compound NOT metabolized | Compound NOT metabolized | Compound metabolized | Compound NOT metabolized | Compound metabolized | Compound metabolized | Compound metabolized | Compound metabolized | Compound metabolized | Compound NOT metabolized
3 | OCCN(CCO)c1nc(N2CCCCC2)c2nc(N(CCO)CCO)nc(N3CCCCC3)c2n1 [DIPYRIDAMOLE] | Compound NOT metabolized | Compound metabolized | Compound NOT metabolized | Compound NOT metabolized | Compound NOT metabolized | Compound metabolized | Compound metabolized | Compound metabolized | Compound metabolized | Compound NOT metabolized | Compound metabolized | Compound NOT metabolized | Compound metabolized | Compound metabolized | Compound metabolized | Compound NOT metabolized | Compound metabolized | Compound metabolized | Compound NOT metabolized | Compound NOT metabolized
4 | COc1cc2nc(N3CCN(C(=O)C4COc5ccccc5O4)CC3)nc(N)c2cc1OC.CS(=O)(=O)O (stereo not given) [DOXAZOSIN MESYLATE] | Compound NOT metabolized | Compound metabolized | Compound NOT metabolized | Compound NOT metabolized | Compound NOT metabolized | Compound NOT metabolized | Compound metabolized | Compound metabolized | Compound metabolized | Compound metabolized | Compound metabolized | Compound metabolized | Compound metabolized | Compound NOT metabolized | Compound metabolized | Compound metabolized | Compound metabolized | Compound metabolized | Compound NOT metabolized | Compound NOT metabolized
5 | CN(C)CCOC(C)(c1ccccc1)c1ccccn1.O=C(O)CCC(=O)O (stereo not given) [DOXYLAMINE SUCCINATE] | Compound NOT metabolized | Compound NOT metabolized | Compound NOT metabolized | Compound NOT metabolized | Compound NOT metabolized | Compound NOT metabolized | Compound NOT metabolized | Compound NOT metabolized | Compound NOT metabolized | Compound NOT metabolized | Compound NOT metabolized | Compound NOT metabolized | Compound NOT metabolized | Compound NOT metabolized | Compound NOT metabolized | Compound NOT metabolized | Compound NOT metabolized | Compound NOT metabolized | Compound NOT metabolized | Compound NOT metabolized
6 | Br.CN1CCC[C@@H]1Cc1c[nH]c2ccc(CCS(=O)(=O)c3ccccc3)cc12 [ELETRIPTAN HYDROBROMIDE] | Compound NOT metabolized | Compound NOT metabolized | Compound NOT metabolized | Compound NOT metabolized | Compound NOT metabolized | Compound NOT metabolized | Compound NOT metabolized | Compound metabolized | Compound NOT metabolized | Compound NOT metabolized | Compound NOT metabolized | Compound metabolized | Compound metabolized | Compound NOT metabolized | Compound metabolized | Compound metabolized | Compound NOT metabolized | Compound metabolized | Compound NOT metabolized | Compound NOT metabolized
7 | CCOc1ccc2nc(S(N)(=O)=O)sc2c1 [ETHOXZOLAMIDE] | Compound NOT metabolized | Compound NOT metabolized | Compound NOT metabolized | Compound NOT metabolized | Compound NOT metabolized | Compound NOT metabolized | Compound NOT metabolized | Compound NOT metabolized | Compound NOT metabolized | Compound NOT metabolized | Compound NOT metabolized | Compound NOT metabolized | Compound NOT metabolized | Compound NOT metabolized | Compound NOT metabolized | Compound NOT metabolized | Compound NOT metabolized | Compound NOT metabolized | Compound NOT metabolized | Compound NOT metabolized
8 | CCc1cccc2c3c([nH]c12)C(CC)(CC(=O)O)OCC3 (stereo not given) [ETODOLAC] | Compound NOT metabolized | Compound NOT metabolized | Compound NOT metabolized | Compound NOT metabolized | Compound NOT metabolized | Compound NOT metabolized | Compound NOT metabolized | Compound metabolized | Compound NOT metabolized | Compound metabolized | Compound metabolized | Compound metabolized | Compound metabolized | Compound NOT metabolized | Compound metabolized | Compound metabolized | Compound metabolized | Compound metabolized | Compound metabolized | Compound metabolized
